Test results: ChEMBL document CHEMBL3045592, “Studies of O,O-dimethyl α-(2,4-dichlorophenoxyacetoxy)ethylphosphonate (HW02) as a new herbicide. 1. Synthesis and herbicidal activity of HW02 and analogues as novel inhibitors of pyruvate dehydrogenase complex” (J Agric Food Chem, 2011)

Key:
Brassica juncea = assay: Post-emergence herbicidal activity against Brassica juncea assessed as growth inhibition at 450 ai g/ha after 20 days by green house test; assay type: functional
Digitaria sanguinalis [1] = assay: Pre-emergence herbicidal activity against Digitaria sanguinalis (hairy crabgrass) assessed as growth inhibition at 150 ai g/ha after 20 days by green house test; assay type: functional
Digitaria sanguinalis [2] = assay: Pre-emergence herbicidal activity against Digitaria sanguinalis (hairy crabgrass) assessed as growth inhibition at 75 ai g/ha after 20 days by green house test; assay type: functional
Chenopodium album [3] = assay: Post-emergence herbicidal activity against Chenopodium album assessed as growth inhibition at 450 ai g/ha after 20 days by green house test; assay type: functional
Chenopodium album [4] = assay: Post-emergence herbicidal activity against Chenopodium album assessed as growth inhibition at 150 ai g/ha after 20 days by green house test; assay type: functional
Chenopodium album [5] = assay: Pre-emergence herbicidal activity against Chenopodium album assessed as growth inhibition at 450 ai g/ha after 20 days by green house test; assay type: functional
Chenopodium album [6] = assay: Pre-emergence herbicidal activity against Chenopodium album assessed as growth inhibition at 150 ai g/ha after 20 days by green house test; assay type: functional
Amaranthus spinosus [7] = assay: Post-emergence herbicidal activity against Amaranthus spinosus assessed as growth inhibition at 450 ai g/ha after 20 days by green house test; assay type: functional
Amaranthus spinosus [8] = assay: Post-emergence herbicidal activity against Amaranthus spinosus assessed as growth inhibition at 75 ai g/ha after 20 days by green house test; assay type: functional
[9] = target: T1, Pyruvate dehydrogenase complex (Pisum sativum) (UniProt P52902+P52904); assay: Inhibition of PDHc in Pisum sativum Zhongwan-2 (pea) shoot mitochondria assessed as decrease in rate of NADH formation using sodium pyruvate as substrate at 0.1 microg/g preincubated for 25 min before substrate addition measured after 1 min by spectrophotometric assay; assay type: protein-complex assay; details: Lathyrus oleraceus
[10] = target: T1, Pyruvate dehydrogenase complex (Pisum sativum); assay: Inhibition of PDHc in Pisum sativum Zhongwan-2 (pea) shoot mitochondria assessed as decrease in rate of NADH formation using sodium pyruvate as substrate at 1 microg/g preincubated for 25 min before substrate addition measured after 1 min by spectrophotometric assay; assay type: protein-complex assay; details: Lathyrus oleraceus
[11] = target: T1, Pyruvate dehydrogenase complex (Pisum sativum); assay: Inhibition of PDHc in Pisum sativum Zhongwan-2 (pea) shoot mitochondria assessed as decrease in rate of NADH formation using sodium pyruvate as substrate at 10 microg/g preincubated for 25 min before substrate addition measured after 1 min by spectrophotometric assay; assay type: protein-complex assay; details: Lathyrus oleraceus
[12] = target: T1, Pyruvate dehydrogenase complex (Pisum sativum); assay: Inhibition of PDHc in Pisum sativum Zhongwan-2 (pea) shoot mitochondria assessed as decrease in rate of NADH formation using sodium pyruvate as substrate at 100 microg/g preincubated for 25 min before substrate addition measured after 1 min by spectrophotometric assay; assay type: protein-complex assay; details: Lathyrus oleraceus
[13] = target: T1, Pyruvate dehydrogenase complex (Pisum sativum); assay: Inhibition of PDHc in Pisum sativum Zhongwan-2 (pea) shoot mitochondria assessed as decrease in rate of NADH formation using sodium pyruvate as substrate at 1000 microg/g preincubated for 25 min before substrate addition measured after 1 min by spectrophotometric assay; assay type: protein-complex assay; details: Lathyrus oleraceus
Abutilon theophrasti [14] = assay: Post-emergence herbicidal activity against Abutilon theophrasti (velvetleaf) assessed as growth inhibition at 75 ai g/ha after 20 days by green house test; assay type: functional
Abutilon theophrasti [15] = assay: Pre-emergence herbicidal activity against Abutilon theophrasti (velvetleaf) assessed as growth inhibition at 450 ai g/ha after 20 days by green house test; assay type: functional
Medicago sativa [16] = assay: Post-emergence herbicidal activity against Medicago sativa (alfalfa) assessed as growth inhibition at 1500 ai g/ha after 20 days by green house test; assay type: functional
Amaranthus retroflexus [17] = assay: Post-emergence herbicidal activity against Amaranthus retroflexus assessed as growth inhibition at 1500 ai g/ha after 20 days by green house test; assay type: functional
[18] = system: Brassica rapa subsp. oleifera; assay: Post-emergence herbicidal activity against Brassica rapa subsp. oleifera Si Yue Man assessed as growth inhibition at 1500 ai g/ha after 20 days by green house test; assay type: functional
Echinochloa crus-galli [19] = assay: Post-emergence herbicidal activity against Echinochloa crus-galli (barnyard grass) assessed as growth inhibition at 1500 ai g/ha after 20 days by green house test; assay type: functional
Medicago sativa [20] = assay: Pre-emergence herbicidal activity against Medicago sativa (alfalfa) assessed as growth inhibition at 1500 ai g/ha after 20 days by green house test; assay type: functional
Amaranthus retroflexus [21] = assay: Pre-emergence herbicidal activity against Amaranthus retroflexus assessed as growth inhibition at 1500 ai g/ha after 20 days by green house test; assay type: functional
Digitaria sanguinalis [22] = assay: Pre-emergence herbicidal activity against Digitaria sanguinalis (hairy crabgrass) assessed as growth inhibition at 1500 ai g/ha after 20 days by green house test; assay type: functional
Echinochloa crus-galli [23] = assay: Pre-emergence herbicidal activity against Echinochloa crus-galli (barnyard grass) assessed as growth inhibition at 1500 ai g/ha after 20 days by green house test; assay type: functional
Amaranthus spinosus [24] = assay: Pre-emergence herbicidal activity against Amaranthus spinosus assessed as growth inhibition at 450 ai g/ha after 20 days by green house test; assay type: functional
Amaranthus spinosus [25] = assay: Pre-emergence herbicidal activity against Amaranthus spinosus assessed as growth inhibition at 150 ai g/ha after 20 days by green house test; assay type: functional
Amaranthus spinosus [26] = assay: Pre-emergence herbicidal activity against Amaranthus spinosus assessed as growth inhibition at 75 ai g/ha after 20 days by green house test; assay type: functional
Amaranthus retroflexus [27] = assay: Post-emergence herbicidal activity against Amaranthus retroflexus assessed as growth inhibition at 450 ai g/ha after 20 days by green house test; assay type: functional
Abutilon theophrasti [28] = assay: Post-emergence herbicidal activity against Abutilon theophrasti (velvetleaf) assessed as growth inhibition at 150 ai g/ha after 20 days by green house test; assay type: functional
Setaria viridis [29] = assay: Post-emergence herbicidal activity against Setaria viridis (green foxtail) assessed as growth inhibition at 450 ai g/ha after 20 days by green house test; assay type: functional
Setaria viridis [30] = assay: Post-emergence herbicidal activity against Setaria viridis (green foxtail) assessed as growth inhibition at 150 ai g/ha after 20 days by green house test; assay type: functional
Setaria viridis [31] = assay: Pre-emergence herbicidal activity against Setaria viridis (green foxtail) assessed as growth inhibition at 150 ai g/ha after 20 days by green house test; assay type: functional
Digitaria sanguinalis [32] = assay: Post-emergence herbicidal activity against Digitaria sanguinalis (hairy crabgrass) assessed as growth inhibition at 450 ai g/ha after 20 days by green house test; assay type: functional

SMILES | growth inhibition (GI) (Brassica juncea) | growth inhibition (GI) (Digitaria sanguinalis [1]) | growth inhibition (GI) (Digitaria sanguinalis [2]) | growth inhibition (GI) (Chenopodium album [3]) | growth inhibition (GI) (Chenopodium album [4]) | growth inhibition (GI) (Chenopodium album [5]) | growth inhibition (GI) (Chenopodium album [6]) | growth inhibition (GI) (Amaranthus spinosus [7]) | growth inhibition (GI) (Amaranthus spinosus [8]) | inhibition [9] | inhibition [10] | inhibition [11] | inhibition [12] | inhibition [13] | growth inhibition (GI) (Abutilon theophrasti [14]) | growth inhibition (GI) (Abutilon theophrasti [15]) | growth inhibition (GI) (Medicago sativa [16]) | growth inhibition (GI) (Amaranthus retroflexus [17]) | growth inhibition (GI) [18] | growth inhibition (GI) (Echinochloa crus-galli [19]) | also measured
COP(=O)(COC(=O)COc1cccc(C(F)(F)F)c1)OC | 82.5% | 0% | 0% | 82.5% | 42.5% | 0% | 0% | 57.5% | 0% | 11.5% | 22.9% | 31.1% | 49.2% | 60.7% | 27.5% | 0% | 90% | <=50% | 90% | <=50% | growth inhibition (GI) (Medicago sativa [20]): 75%; growth inhibition (GI) (Amaranthus retroflexus [21]): 50%; growth inhibition (GI) (Digitaria sanguinalis [22]): 75%; growth inhibition (GI) (Echinochloa crus-galli [23]): 50%; growth inhibition (GI) (Amaranthus spinosus [24]): 0%; growth inhibition (GI) (Amaranthus spinosus [25]): 0%; growth inhibition (GI) (Amaranthus spinosus [26]): 0%; growth inhibition (GI) (Amaranthus retroflexus [27]): 57.5%; growth inhibition (GI) (Abutilon theophrasti [28]): 42.5%; growth inhibition (GI) (Setaria viridis [29]): 0%; growth inhibition (GI) (Setaria viridis [30]): 0%; growth inhibition (GI) (Setaria viridis [31]): 0%; growth inhibition (GI) (Digitaria sanguinalis [32]): 0%
O=C(O)COc1ccc(Cl)cc1Cl [2,4-DICHLOROPHENOXYACETIC ACID] | 100% | 10% | 0% | 100% | 92.5% | 0% | 0% | 92.5% | 60% | 8.8% | 12.9% | 18.5% | 27.8% | 48.1% | 72.5% | 0% | 90% | 90% | 90% | 50% | growth inhibition (GI) (Medicago sativa [20]): 90%; growth inhibition (GI) (Amaranthus retroflexus [21]): 90%; growth inhibition (GI) (Digitaria sanguinalis [22]): 90%; growth inhibition (GI) (Echinochloa crus-galli [23]): 75%; growth inhibition (GI) (Amaranthus spinosus [24]): 0%; growth inhibition (GI) (Amaranthus spinosus [25]): 0%; growth inhibition (GI) (Amaranthus spinosus [26]): 0%; growth inhibition (GI) (Amaranthus retroflexus [27]): 100%; growth inhibition (GI) (Abutilon theophrasti [28]): 100%; growth inhibition (GI) (Setaria viridis [29]): 0%; growth inhibition (GI) (Setaria viridis [30]): 0%; growth inhibition (GI) (Setaria viridis [31]): 5.5%; growth inhibition (GI) (Digitaria sanguinalis [32]): 0%
COP(=O)(OC)C(C)OC(=O)COc1ccc(Cl)cc1Cl (centres undefined) [CLACYFOS] | 100% | 0% | 0% | 100% | 96% | 0% | 0% | 100% | 90% | 31.1% | 44.3% | 50.8% | 59% | 73.8% | 97.5% | 0% | 90% | 90% | 90% | 50% | growth inhibition (GI) (Medicago sativa [20]): 90%; growth inhibition (GI) (Amaranthus retroflexus [21]): 90%; growth inhibition (GI) (Digitaria sanguinalis [22]): 75%; growth inhibition (GI) (Echinochloa crus-galli [23]): 75%; growth inhibition (GI) (Amaranthus spinosus [24]): 0%; growth inhibition (GI) (Amaranthus spinosus [25]): 0%; growth inhibition (GI) (Amaranthus spinosus [26]): 0%; growth inhibition (GI) (Amaranthus retroflexus [27]): 100%; growth inhibition (GI) (Abutilon theophrasti [28]): 100%; growth inhibition (GI) (Setaria viridis [29]): 0%; growth inhibition (GI) (Setaria viridis [30]): 0%; growth inhibition (GI) (Setaria viridis [31]): 0%; growth inhibition (GI) (Digitaria sanguinalis [32]): 37.5%
